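Five compound concentrations were applied to cells in 96-well plates for 48 hours; endpoints were derived by simple linear interpolation of the resulting dose-response curve. GI50: concentration for 50% inhibition of growth. Definition used: TGI = concentration required for complete inhibition of growth.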
The molecules below were run on MDA-MB-468 breast (assay: inhibition of tumour cell growth, NCI panel, 48 h).
`O=C(NCCNC(=O)c1ccc(F)cc1)Nc1ccc(-n2cc(-c3ccncc3)c(-c3ccc(Cl)c(O)c3)n2)cc1` showed a GI50 of 0.297 µM and a TGI of 1.65 µM.
Molecule `COc1cc2oc(-c3cccc(C(=O)Nc4ccc(C)cc4)c3)cc(=O)c2c(OC)c1OC` has a GI50 of 3.88 µM and a TGI of 24.6 µM.
For `C=C1C(=O)O[C@H]2[C@H]1CC/C(COC(=O)C(=O)c1c[nH]c3ccc(Cl)cc13)=C\CC[C@@]1(C)O[C@@H]21`, the GI50 was 0.353 µM and the TGI was 1.06 µM.
Molecule `CC1=C/C(O)CC(=O)Cc2nc(co2)C(=O)N2CCC=C2C(=O)OC(C(C)C)C(C)/C=C\C(=O)NC/C=C\1` (stereo unspecified) has a GI50 of 11.4 µM and a TGI of 27.5 µM.
For `C=C1[C@@H](O)C[C@H]2C(C)(C)C[C@H](Cl)C[C@]2(C)[C@H]1C[C@H](O)[C@H]1CC(=O)NC1=O`, the GI50 was 0.0138 µM and the TGI was 0.124 µM.
`NS(=O)(=O)c1cccc(Nc2nc(SCC(=O)c3ccc([N+](=O)[O-])cc3)nc3ccccc23)c1` gave a GI50 of 15.6 µM and a TGI of 43.4 µM.
Work on `CN(C)c1cccc(/C=C(\C#N)c2ccccc2)c1` yielded a GI50 of 0.402 µM and a TGI of 36.8 µM.
`O=C(Nc1nc(-c2ccccc2)cs1)c1cc(O)c(O)c(O)c1` was tested, and the GI50 was 2.46 µM and the TGI was 12.7 µM.
Molecule `C[n+]1cc2cc3c(cc2c2ccccc21)OCO3` has a GI50 of 0.503 µM and a TGI of 3.45 µM.
For `COc1ccc(Nc2ncc(-c3ccccc3)o2)cc1OC`, the GI50 was > 11.6 µM and the TGI was > 25 µM.
Molecule `Cc1nc2ccccc2c(/C=C/c2ccccc2)c1C(=O)/C=C/c1ccc(Cl)cc1` has a GI50 of 1.56 µM and a TGI of 3.15 µM.
`O=C(c1ccccc1)c1ccc(O)c2ncccc12` gave a GI50 of 2.41 µM and a TGI of 7.75 µM.
`CC(=O)OC1CC2(O)C(CCC3(C)C(c4ccc(=O)oc4)CCC32O)C2(C)CCC(OC3OC(CO)C(O)C(O)C3O)C=C12` (stereo unspecified) was tested, and the GI50 was 0.0611 µM and the TGI was 0.338 µM.
Work on `CNC(C)[C@H]1CCC2C3CCC4C[C@@H](N(C)C(=O)c5ccccc5)CC[C@]4(C)C3CC[C@@]21C` (stereo partly specified) yielded a GI50 of 0.854 µM and a TGI of 2.72 µM.
Work on `O=C1Nc2ccc(CN3CCOC3=O)cc2/C1=C/c1cc(CN2CCOCC2)c[nH]1` yielded a GI50 of 20.7 µM and a TGI of 73.3 µM.
In the case of `Clc1ccc(N/N=C(\c2ccccc2)c2ccccn2)nc1`, the GI50 is reported as 0.0313 µM and the TGI is reported as 0.316 µM.
`N=C1N=C(N)S/C1=C\c1ccc2ncccc2c1` was tested, and the GI50 was > 25 µM and the TGI was > 25 µM.
`C#C[C@]1(O)CC[C@H]2[C@@H]3CC=C4c5sc(-c6ccc7c(c6)OCO7)nc5CC[C@]4(C)[C@H]3CC[C@@]21C` showed a GI50 of 2.96 µM and a TGI of 10 µM.
Molecule `C[C@@H]1CC[C@@H]2[C@@H]1[C@H](OC(=O)c1ccc3ccccc3c1)[C@]1(C3CCCCC3)C[C@@H](OC(=O)CO)[C@@]2(C)O1` has a GI50 of 10.7 µM and a TGI of 26.2 µM.
For `CCOc1ccc(NC(=O)c2cc3ccccc3cc2O)cc1`, the GI50 was 64.6 µM and the TGI was > 100 µM.
`COc1ccc(C2CC(c3cccc(OC)c3)=NN2C(=O)c2cc(OC)c(OC)c(OC)c2)cc1` (stereo unspecified) was tested, and the GI50 was 0.484 µM and the TGI was > 100 µM.
Work on `O=C1c2ccccc2C(=O)c2sc(Nc3ccc(Cl)cc3)nc21` yielded a GI50 of 1.98 µM and a TGI of 4.68 µM.
In the case of `NC(=S)N/N=C/c1ccc(OC(=O)COc2ccccc2)cn1`, the GI50 is reported as 2.31 µM and the TGI is reported as 7.33 µM.
`CC(=O)Oc1ccccc1C(=O)NCCC[Se]C#N` showed a GI50 of 3.19 µM and a TGI of 15.6 µM.
`O=C(O)c1cc2cc(O)ccc2[nH]1` was tested, and the GI50 was > 100 µM and the TGI was > 100 µM.
Molecule `CC(C)c1ccc(/C=N/N=C(N)N)cc1` has a GI50 of 1.85 µM and a TGI of 5.07 µM.
`Clc1ccc(-c2nc(C(Cl)Cl)nc3cc(-c4ccccc4)nn23)cc1` was tested, and the GI50 was 0.772 µM and the TGI was 2.15 µM.
Molecule `CC(=O)[O][Hg][CH2]C1(C)COC(C)([CH2][Hg][O]C(C)=O)CO1` (stereo unspecified) has a GI50 of 1.97 µM and a TGI of 4.12 µM.
With `N#CSCC1CC(O)(c2ccccc2)CC(c2ccc(Cl)cc2)O1` (stereo unspecified) the GI50 was 5.07 µM and the TGI was 12.9 µM.
Molecule `CNC12C3C4C1C1C2C3C41C(=O)N[C@H](C(=O)N(C)[C@H](C[C@@H](OC(C)=O)c1nc(C(=O)N[C@@H](Cc2ccccc2)C[C@H](C)C(=O)OC)cs1)C(C)C)C1CC1` (stereo partly specified) has a GI50 of 0.0705 µM and a TGI of 1.37 µM.
In the case of `Cc1ccc(NC(=O)N2CCCCC2)cc1[N+](=O)[O-]`, the GI50 is reported as > 100 µM and the TGI is reported as > 100 µM.
For `CC(=O)N1N=C(c2ccc(Nc3nc(Nc4ccc(F)cc4)nc(Nc4ccc(Cl)cc4)n3)cc2)CC1c1ccc(N(C)C)cc1` (stereo unspecified), the GI50 was 5.61 µM and the TGI was 33.8 µM.
`O=C(Nc1cc(C(F)(F)F)cc(C(F)(F)F)c1)Nc1ccc(OCc2nnc(-c3ccc(Cl)cc3)o2)c(F)c1` showed a GI50 of 1 µM and a TGI of 4.17 µM.
`CCCCCCCCc1ccc(CCC(N)(CO)CO)cc1` gave a GI50 of 1.63 µM and a TGI of 3.05 µM.
`COC(=O)c1ccc(NC(N)=NCC(C)(C)COc2ccc(C(F)(F)F)cc2)nc1` was tested, and the GI50 was 1.06 µM and the TGI was 2.73 µM.
`CCOC(=O)Nc1ccc(C(=O)/C=C/c2ccccc2)cc1` was tested, and the GI50 was 25.2 µM and the TGI was > 100 µM.
`OCc1ncc(-c2ccccc2)s1` was tested, and the GI50 was > 100 µM and the TGI was > 100 µM.
Work on `c1ccc2c(-c3cnn4cc(-c5ccc(N6CCNCC6)cc5)cnc34)ccnc2c1` yielded a GI50 of 0.335 µM and a TGI of 1.54 µM.

Reference: PubChem BioAssay (NCI)
